10 molecules from ChEMBL document CHEMBL4007495, “Substrate and inhibitor specificity of kynurenine monooxygenase from Cytophaga hutchinsonii” (Bioorg Med Chem Lett, 2017) can be followed below.

The nature of experiment [1]: Competitive inhibition of Cytophaga hutchinsonii KMO using 5-Br-kynurenine as substrate assessed as decrease in NADPH consumption by UV/Vis spectrophotometer.
The subject of experiment [2] is Cytophaga hutchinsonii. Nature of the experiment: Activity at Cytophaga hutchinsonii KMO assessed as NADPH consumption by UV/Vis spectrophotometer.
In experiment [3] the test system is Cytophaga hutchinsonii. The experiment in a line: Ratio of Kcat to Km for Cytophaga hutchinsonii KMO.
Experiment [4] relates to Cytophaga hutchinsonii. The experiment in a line: Activity at Cytophaga hutchinsonii KMO by ESI-LC/MS method.
Experiment [5] has as its system Cytophaga hutchinsonii. Nature of the experiment: Activity at Cytophaga hutchinsonii KMO at 0.2 mM after 30 mins by HPLC method.

Calls of active or inactive are those of the source. The rule behind the calls is not given here.

For the molecule `Nc1c(Cl)cccc1C(=O)CC(N)C(=O)O` (stereo not drawn), the Ki in experiment [1] was found to be 13.8 µM. Still for that read-out and setting: for `Cc1cccc(C(=O)CC(N)C(=O)O)c1N` (stereo not drawn) the value was 8.6 µM; for `COc1ccc(C(=O)NCC(=O)O)cc1OC`, 1000 µM.

In the case of `Nc1ccc(Cl)cc1C(=O)C[C@H](N)C(=O)O`, in the experiment on Cytophaga hutchinsonii [2], the Michaelis-Menten constant (Km) turned out to be 2 µM and the kcat is 0.8 s⁻¹. Also, the kcat/Km with Cytophaga hutchinsonii [3] was 4 ×10⁵ /M/s. The matching figures for `Nc1ccccc1C(=O)C[C@H](N)C(=O)O`: 67 µM, 2 s⁻¹ and 5.3 ×10⁴ /M/s. For `Nc1c(Cl)cc(Br)cc1C(=O)CC(N)C(=O)O` (stereo not drawn), in experiment [1], the Ki turned out to be 11 µM.

Regarding `Cc1cc(Br)cc(C(=O)CC(N)C(=O)O)c1N` (stereo not drawn), the Ki in experiment [1] was 10.2 µM. Still for that read-out and setting: under `O=C(O)CNC(=O)c1ccc(Cl)c(Cl)c1` stands 34 µM; under `Nc1c(Br)cc(Br)cc1C(=O)C[C@H](N)C(=O)O`, 1.5 µM. For `Nc1ccc(Br)cc1C(=O)C[C@H](N)C(=O)O`, the result in the experiment with Cytophaga hutchinsonii [4] was Active. The outcome with Cytophaga hutchinsonii [5] was Active. In the experiment with Cytophaga hutchinsonii [2], the Km was 4.5 µM and the kcat was 0.6 s⁻¹. For the same molecule, the kcat/Km in the experiment on Cytophaga hutchinsonii [3] was determined as 1.3 ×10⁵ /M/s.

One may read the Ki as a dissociation constant, usually derived from enzyme kinetics or from competition with a known ligand. For orientation: Km means the concentration of substrate that gives half-maximal velocity. By kcat is commonly meant the maximal rate divided by the concentration of active sites.
